Reference: ChEMBL document CHEMBL3045657, “Synthesis and biological evaluation of naphthalene, furan and pyrrole based chalcones as cytotoxic and antimicrobial agents” (2012)
In brackets after ≈: the same amount, converted by molar mass. Activity calls are given as the source filed them. No cut-off for these calls is given here.

Experiments:
Type in all cases: functional
Escherichia coli = test: Antibacterial activity against Escherichia coli MTCC 82 after 24 hr by serial tube dilution method
Salmonella typhi = test: Antibacterial activity against Salmonella enterica subsp. enterica serovar Typhi MTCC 1251 after 24 hr by serial tube dilution method
Bacillus subtilis = test: Antibacterial activity against Bacillus subtilis MTCC 2451 after 24 hr by serial tube dilution method
OVCAR = test: Cytotoxicity against Homo sapiens (human) OVCAR cells assessed as cell growth inhibition at 1 x 10^-5 M after 48 hr by SRB assay; conditions: for inhibition of growth at 10 µM: read-out: GI
IMR-32 = test: Cytotoxicity against Homo sapiens (human) IMR32 cells assessed as cell growth inhibition at 1 x 10^-5 M after 48 hr by SRB assay; conditions: for inhibition of growth at 10 µM: IMR-32, 48 h, read-out: GI
PC-3 = test: Cytotoxicity against Homo sapiens (human) PC3 cells assessed as cell growth inhibition at 1 x 10^-5 M after 48 hr by SRB assay; conditions: for inhibition of growth at 10 µM: PC-3, 48 h, read-out: GI
Pseudomonas aeruginosa = test: Antibacterial activity against Pseudomonas aeruginosa MTCC 2642 after 24 hr by serial tube dilution method
HEp-2 = test: Cytotoxicity against Homo sapiens (human) Hep2 cells assessed as cell growth inhibition at 1 x 10^-5 M after 48 hr by SRB assay; conditions: for inhibition of growth at 10 µM: HEp-2, 48 h, read-out: GI
Candida albicans = test: Antifungal activity against Candida albicans MTCC 3018 after 48 hr by serial tube dilution method; conditions: MTCC 3018, 48 h
Staphylococcus aureus = test: Antibacterial activity against Staphylococcus aureus MTCC 96 after 24 hr by serial tube dilution method
Aspergillus niger = test: Antifungal activity against Aspergillus niger MTCC 1344 after 48 hr by serial tube dilution method; conditions: MTCC 1344, 48 h

Row | Molecule | MIC (Escherichia coli; MTCC 82, 24 h) | MIC (Salmonella typhi; MTCC 1251, 24 h) | MIC (Bacillus subtilis; MTCC 2451, 24 h) | growth inhibition (GI) (OVCAR) | inhibition of growth at 10 µM (IMR-32) | growth inhibition (GI) (PC-3) | MIC (Pseudomonas aeruginosa; MTCC 2642, 24 h) | inhibition of growth at 10 µM (HEp-2) | MIC (Candida albicans) | MIC (Staphylococcus aureus; MTCC 96, 24 h) | MIC (Aspergillus niger) | inhibition of growth at 10 µM (OVCAR) | inhibition of growth at 10 µM (PC-3) | growth inhibition (GI) (IMR-32) | MIC (Escherichia coli) | MIC (Salmonella typhi) | MIC (Bacillus subtilis) | MIC (Pseudomonas aeruginosa) | MIC (Staphylococcus aureus) | growth inhibition (GI) (HEp-2)
1 | O=C(/C=C/c1c(Cl)cccc1Cl)c1ccc[nH]1 | 15.6 µg/mL (≈ 58.6 µM) | 31.2 µg/mL (≈ 117 µM) | 31.2 µg/mL (≈ 117 µM) | inactive | 12% | inactive | 31.2 µg/mL (≈ 117 µM) | 16% | 125 µg/mL (≈ 470 µM) | 15.6 µg/mL (≈ 58.6 µM) | 125 µg/mL (≈ 470 µM) | – | – | – | – | – | – | – | – | –
2 | O=C(/C=C/c1cccc([N+](=O)[O-])c1)c1ccc2ccccc2c1 | 250 µg/mL (≈ 824 µM) | – | – | – | 11% | – | – | 17% | – | 125 µg/mL (≈ 412 µM) | – | 13% | 16% | – | – | – | – | – | – | –
3 | COc1cc(/C=C/C(=O)c2ccc3ccccc3c2)cc(OC)c1OC | 3.9 µg/mL (≈ 11.2 µM) | 15.6 µg/mL (≈ 44.8 µM) | 3.9 µg/mL (≈ 11.2 µM) | – | 81% | – | 15.6 µg/mL (≈ 44.8 µM) | 79% | 125 µg/mL (≈ 359 µM) | 1.9 µg/mL (≈ 5.45 µM) | 125 µg/mL (≈ 359 µM) | 87% | 84% | – | – | – | – | – | – | –
4 | CC1(C)S[C@@H]2[C@H](NC(=O)[C@H](N)c3ccc(O)cc3)C(=O)N2[C@H]1C(=O)O [AMOXICILLIN] | 0.25 µg/mL (≈ 0.684 µM) | 0.2 µg/mL (≈ 0.547 µM) | 0.2 µg/mL (≈ 0.547 µM) | – | – | – | 0.3 µg/mL (≈ 0.821 µM) | – | – | 0.2 µg/mL (≈ 0.547 µM) | – | – | – | – | – | – | – | – | – | –
5 | O=C(/C=C/c1cccc([N+](=O)[O-])c1)c1ccco1 | 125 µg/mL (≈ 514 µM) | – | 125 µg/mL (≈ 514 µM) | – | – | inactive | 125 µg/mL (≈ 514 µM) | 16% | – | 125 µg/mL (≈ 514 µM) | – | 13% | – | inactive | – | – | – | – | – | –
6 | O=C(/C=C/c1ccc2c(c1)OCO2)c1ccco1 | 125 µg/mL (≈ 516 µM) | 125 µg/mL (≈ 516 µM) | 31.2 µg/mL (≈ 129 µM) | – | 16% | – | 125 µg/mL (≈ 516 µM) | 13% | – | 62.5 µg/mL (≈ 258 µM) | 500 µg/mL (≈ 2060 µM) | 11% | 21% | – | – | – | – | – | – | –
7 | O=C(/C=C/c1ccccc1)c1ccc[nH]1 | 500 µg/mL (≈ 2540 µM) | 500 µg/mL (≈ 2540 µM) | 250 µg/mL (≈ 1270 µM) | – | 14% | – | – | 23% | – | 125 µg/mL (≈ 634 µM) | – | 18% | 22% | – | – | – | – | – | – | –
8 | O=C(/C=C/c1ccc([N+](=O)[O-])cc1)c1ccc[nH]1 | 500 µg/mL (≈ 2060 µM) | – | – | – | 11% | – | – | 13% | – | 250 µg/mL (≈ 1030 µM) | – | 14% | 11% | – | – | – | – | – | – | –
9 | GENTAMICIN | – | – | – | – | – | – | – | – | – | – | – | – | – | – | 0.25 µg/mL | 0.2 µg/mL | 0.3 µg/mL | 0.25 µg/mL | 0.4 µg/mL | –
10 | O=C(/C=C/c1ccc2c(c1)OCO2)c1ccc2ccccc2c1 | 125 µg/mL (≈ 413 µM) | 125 µg/mL (≈ 413 µM) | 125 µg/mL (≈ 413 µM) | – | 39% | – | 250 µg/mL (≈ 827 µM) | 42% | – | 62.5 µg/mL (≈ 207 µM) | – | 46% | 42% | – | – | – | – | – | – | –
11 | COc1ccc(OC)c(/C=C/C(=O)c2ccco2)c1 | 31.2 µg/mL (≈ 121 µM) | 62.5 µg/mL (≈ 242 µM) | 31.2 µg/mL (≈ 121 µM) | inactive | 31% | – | 31.2 µg/mL (≈ 121 µM) | 29% | 125 µg/mL (≈ 484 µM) | 62.5 µg/mL (≈ 242 µM) | 125 µg/mL (≈ 484 µM) | – | 23% | – | – | – | – | – | – | –
12 | O=C(/C=C/c1ccccc1)c1ccco1 | – | – | 250 µg/mL (≈ 1260 µM) | inactive | 13% | – | – | – | – | 250 µg/mL (≈ 1260 µM) | – | – | 19% | – | – | – | – | – | – | inactive
13 | O=C(/C=C/c1cccc(Cl)c1Cl)c1ccc[nH]1 | 15.6 µg/mL (≈ 58.6 µM) | 15.6 µg/mL (≈ 58.6 µM) | 31.2 µg/mL (≈ 117 µM) | inactive | – | – | 7.8 µg/mL (≈ 29.3 µM) | 15% | 250 µg/mL (≈ 939 µM) | 7.8 µg/mL (≈ 29.3 µM) | 125 µg/mL (≈ 470 µM) | – | 11% | inactive | – | – | – | – | – | –
14 | O=C(/C=C/c1cccc(Br)c1)c1ccc2ccccc2c1 | 250 µg/mL (≈ 741 µM) | 125 µg/mL (≈ 371 µM) | 125 µg/mL (≈ 371 µM) | – | 11% | inactive | 250 µg/mL (≈ 741 µM) | – | – | 125 µg/mL (≈ 371 µM) | – | 14% | – | – | – | – | – | – | – | inactive
15 | O=C(/C=C/c1cccc([N+](=O)[O-])c1)c1ccc[nH]1 | 250 µg/mL (≈ 1030 µM) | 500 µg/mL (≈ 2060 µM) | 250 µg/mL (≈ 1030 µM) | inactive | 14% | – | – | 17% | – | 125 µg/mL (≈ 516 µM) | 500 µg/mL (≈ 2060 µM) | – | 13% | – | – | – | – | – | – | –
